Measured values from patent US20030224398A1, “Purification of the leading front of migratory cells” (priority 2002, published 2003).

Assays:
[1] = test system: NIH 3T3 cells; test: Cell migration through 8.0-μm porous Boyden chambers, gradient or uniform chemokine; type: cell-based, mouse; details: for chemoattractant activity (directed cell migration toward a gradient) / random cell migration: NIH 3T3, 8.0-μm pores; for chemoattractant activity (directed cell migration toward a gradient): 3 h; for random cell migration: uniform concentration
Procedure: (§1) Pseudopodia extension was monitored using a pseudopodia assay kit (ECM 650; Chemicon International) or Costar chambers. Serum-starved cells (75,000) were placed into the upper compartment of a chamber ([…]) equipped with a 3.0-μm porous polycarbonate membrane coated on both sides with an optimal amount of ECM protein (5 μg/ml fibronectin or collagen type I). Cells were allowed to attach and spread on the upper surface of the membrane for 2 h, and then stimulated with LPA (Sigma-Aldrich), insulin, or buffer only, which was placed in the lower chamber to establish a gradient or placed in the upper and lower chamber to form a uniform concentration. Cells were allowed to extend pseudopodia through the pores toward the direction of the gradient for various times. To initiate pseudopodia retraction, the chemoattractant was removed or an equivalent amount of chemoattractant placed in the upper chamber to create a uniform concentration. The cell body on the upper surface was manually removed with a cotton swab and the total pseudopodia protein only on the undersurface was determined using BCA and a microprotein assay system (Pierce Chemical Co.). Additionally, pseudopodia can be stained with 1% crystal violet in 2% ethanol and then the dye eluted with 10% acetic acid, which can be measured in an ELISA plate reader (OD 600) for comparison to a standard curve as previously described (Klemke et al., 1998).
(§2) NIH 3T3 cells were examined for cell migration for 3 h in 8.0-μm porous Boyden chambers containing different concentrations of LPA or insulin placed in 1) the bottom, 2) top, or 3) top and bottom compartments. The number of migratory cells per microscopic field (200×) on the underside of the membrane was counted as described in Example 1 above. Additionally, COS-7 cells were examined for cell migration as described above with respect to NIH 3T3 cells. […] In FIG. 1, each point on the graphs represents the mean±SEM of three triplicate migration chambers of three independent experiments.

[2] = test system: COS-7 cells; test: as above; type: cell-based; details: for chemoattractant activity (directed cell migration toward a gradient) / random cell migration: COS-7, 8.0-μm pores; for random cell migration: uniform concentration
Procedure: as §1, §2

[3] = test system: NIH 3T3 cells; test: Pseudopodia retraction after removal of the LPA gradient; type: cell-based, mouse
Procedure: as §1
Pseudopodia retraction was studied via the following methods. Pseudopodia extension of NIH 3T3 cells through 3.0-μm pores toward an LPA gradient was examined at 60, 120, 180 and 240 minutes, or the LPA gradient was removed after 60 min and pseudopodia were allowed to retract for the indicated times (LPA Removed). Total pseudopodia protein on the underside of the membrane was determined as described in Example 1.
Pseudopodia were allowed to extend for 60 min (time 0) toward an LPA gradient as described above. The gradient was then removed and pseudopodia were fixed at the indicated times (0, 30, 60, 120 minutes). […]

[4] = test system: NIH 3T3 cells; test: Pseudopodia extension through 3.0-μm porous membranes toward LPA; type: cell-based, mouse; details: 3.0-μm pores
Procedure: as §1
NIH 3T3 cells were allowed to attach to fibronectin coated 3.0-μm porous membranes for 2 h. Pseudopodia extension was then examined for various times in the absence (NT) or presence of LPA (100 ng/ml) in the bottom, top, or top and bottom compartments. Pseudopodia protein on the underside of the membrane was determined as described in Example 1. Results are set forth in FIG. 2, where each point in the graphs represents the mean±SEM of three triplicate membranes of three independent experiments. COS-7 cells were examined for pseudopodia protrusion in the same manner as for NIH 3T3 cells as described above.
Confocal images of NIH 3T3 pseudopodia protrusion on the undersurface of a 3.0-μm porous membrane in response to LPA (100 ng/ml) as a gradient (LPA bottom) or uniform concentration (LPA top and bottom) were generated. Cells were labeled with cell tracker green and then fixed at the indicated times to visualize protruding pseudopodia on the undersurface of the membrane.

[5] = listed as lysophosphatidic acid
[6] = LPA gradient removed after 60 min extension

Substance | chemoattractant activity (directed cell migration toward a gradient) [1] | random cell migration [1] | chemoattractant activity (directed cell migration toward a gradient) [2] | random cell migration [2] | chemoattractant activity (directed cell migration toward a gradient) ([1]; listed as LSA) | chemoattractant activity (directed cell migration toward a gradient) [1, 5] | concentration at which chemotaxis reached a maximum ([1]; NIH 3T3, dose dependent) [ng/mL] | chemoattractant activity (directed cell migration toward a gradient) ([2]; listed as LSA) | chemoattractant activity (directed cell migration toward a gradient) [2, 5] | concentration at which chemotaxis reached a maximum ([2]; COS-7, dose dependent) [ng/mL] | cells displaying pseudopodia retraction [3, 6] [%] | onset of pseudopodia retraction after removing the gradient [3, 6] [min] | effect of restoring the gradient on retracting pseudopodia ([3]; LPA gradient restored after removal) | pseudopodia extension, gradient versus uniform concentration ([4]; LPA gradient but not uniform concentration) | time at which extension of pseudopodia was first detected after exposure to the gradient ([4]; LPA gradient) [min] | time over which pseudopodia extension proceeded linearly ([4]; LPA gradient) [min] | cells polarized by extending pseudopodia ([4]; LPA gradient, confocal microscope) [%]
insulin | poor chemoattractant | promoted random migration | poor chemoattractant | promoted random migration | – | – | – | – | – | – | – | – | – | – | – | – | –
lysophosphatidic acid [LPA] | true chemoattractant | does not facilitate random cell migration | true chemoattractant | does not facilitate random cell migration | potent chemoattractant | potent chemoattractant | 100 to 200 | potent chemoattractant | potent chemoattractant | 100 to 200 | > 80 | ≤ 5 | inhibited the retraction process and induced pseudopodia growth | extend pseudopodia through small pores specifically in the direction of the gradient | 10 to 15 | 60 to 90 | > 90
